The source made the active and inactive calls. No rule for the calls is given here.
Tested on: rodent carcinogenicity bioassays, tumor incidence
Assay: CCRIS carcinogenicity studies
Procedure, shortened: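 Archive of carcinogenicity, mutagenicity, tumor promotion and tumor inhibition results drawn from journals, NCI reports and other sources, expert-reviewed; covers 1985-2011 and is no longer updated.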

Measured: carcinogen call

O=[N+]([O-])c1ccc2ccc3cccc4ccc1c2c34
inactive: Species: HAMSTER, Strain/Sex: SYRIAN/MALE, Route: INTRATRACHEAL, Dose: 0, 1, 2 MG ADSORBED ONTO CARBON CARRIER PARTICLES IN 0.2 ML SALINE 1/WK FOR 92 WK (STUDY DURATION: 92 WK), Dose: 0, 1, 2 MG ADSORBED ONTO CARBON CARRIER PARTICLES IN 0.2 ML SALINE 1/WK FOR 92 WK (STUDY DURATION: 92 WK) inactive; negative | Species: HAMSTER, Strain/Sex: SYRIAN/MALE, Route: INTRATRACHEAL, Dose: 0, 1, 2 MG ADSORBED ONTO CARBON CARRIER PARTICLES IN 0.2 ML SALINE 2/WK FOR 92 WK (STUDY DURATION: 92 WK), Dose: 0, 1, 2 MG ADSORBED ONTO CARBON CARRIER PARTICLES IN 0.2 ML SALINE 2/WK FOR 92 WK (STUDY DURATION: 92 WK) inactive; negative | Species: MOUSE, Strain/Sex: B6C3F1/FEMALE, Route: INTRAPERITONEAL, Dose: 0, 7 NMOL (TOTAL DOSE), 1/7, 2/7 AND 4/7 OF THE TOTAL DOSE ADMINISTERED WITHIN 24 HR OF BIRTH AND AT 8 AND 15 D OF AGE inactive; negative | Species: MOUSE, Strain/Sex: B6C3F1/MALE, Route: INTRAPERITONEAL, Dose: 0, 7 NMOL (TOTAL DOSE), 1/7, 2/7 AND 4/7 OF THE TOTAL DOSE ADMINISTERED WITHIN 24 HR OF BIRTH AND AT 8 AND 15 D OF AGE inactive; negative | Species: MOUSE, Strain/Sex: BALB/MALE, Route: SUBCUTANEOUS, Dose: 0, 0.1 MG IN DMSO 1/WK FOR 20 WK (STUDY DURATION: 60 WK) inactive; negative | Species: MOUSE, Strain/Sex: ICR/FEMALE, Route: INTRAPERITONEAL, Dose: 0, 21 UG TOTAL DOSE (3 UG/5 µL, 6 UG/10 µL, 12 UG/20 µL DMSO ON DAYS 1,8 AND 15), 105 UG TOTAL DOSE (15 UG/5 µL, 30 UG/1, Dose: 0, 21 UG TOTAL DOSE (3 UG/5 µL, 6 UG/10 µL, 12 UG/20 µL DMSO ON DAYS 1,8 AND 15), 105 UG TOTAL DOSE (15 UG/5 µL, 30 UG/1 inactive; negative | Species: MOUSE, Strain/Sex: ICR/MALE, Route: INTRAPERITONEAL, Dose: 0, 21 UG TOTAL DOSE (3 UG/5 µL, 6 UG/10 µL, 12 UG/20 µL DMSO ON DAYS 1,8 AND 15), 105 UG TOTAL DOSE (15 UG/5 µL, 30 UG/1, Dose: 0, 21 UG TOTAL DOSE (3 UG/5 µL, 6 UG/10 µL, 12 UG/20 µL DMSO ON DAYS 1,8 AND 15), 105 UG TOTAL DOSE (15 UG/5 µL, 30 UG/1 inactive; negative | Species: RAT, Strain/Sex: F344/MALE, Route: SUBCUTANEOUS, Dose: 0, 0.2, 2 MG 2/WK FOR 10 WK (STUDY DURATION: 650 D), Dose: 0, 0.2, 2 MG 2/WK FOR 10 WK (STUDY DURATION: 650 D) inactive; negative | Species: RAT, Strain/Sex: STRAIN CD/FEMALE, Route: INTRAGASTRIC, Dose: 0, 10 UMOL IN DMSO 3/WK FOR 4 WK (TOTAL DOSE: 16 UMOL/RAT) (STUDY DURATION: 78 WK) inactive; negative | Species: RAT, Strain/Sex: STRAIN-CD/FEMALE, Route: INJECTION, Dose: 0, 0.1 ML OF 20.3 UMOL/ML DMSO INJECTED INTO MAMMARY TISSUE OF THE 3 LEFT THORACIC NIPPLES FOLLOWED THE NEXT D BY SIMILA inactive; negative | Species: RAT, Strain/Sex: STRAIN-CD/FEMALE, Route: INJECTION, Dose: 0, 0.1 ML OF A 20.3 UMOL/ML SOLUTION IN DMSO INJECTED INTO MAMMARY TISSUE UNDERLYING 3 LEFT THORACIC NIPPLES THE FOLLOWI inactive; negative | Species: RAT, Strain/Sex: STRAIN-CD/FEMALE, Route: INTRAPERITONEAL, Dose: 0, 67 UMOL/KG BW IN DMSO 3/WK FOR 4 WK (STUDY DURATION: 61 WK) inactive; negative | Species: RAT, Strain/Sex: STRAIN-CD/FEMALE, Route: INTRAPERITONEAL, Dose: 0, 67 UMOL/KG/BW IN 25 UMOL/ML DMSO 3/WK FOR 4 WK (TOTAL DOSE: 0; 119 UMOL) ADMINISTERED TO WEANLING RATS (STUDY DURATIO, Dose: 0, 67 UMOL/KG/BW IN 25 UMOL/ML DMSO 3/WK FOR 4 WK (TOTAL DOSE: 0; 119 UMOL) ADMINISTERED TO WEANLING RATS (STUDY DURATIO inactive; negative
active: Species: MOUSE, Strain/Sex: STRAIN-A/FEMALE, Route: INTRAPERITONEAL, Dose: 0, 0.71, 2.14, 6.44 MMOL/KG IN 0.1 ML TRIOCTANOIN TOTAL DOSE ADMINISTERED AS 3 INJECTIONS/WK FOR 17 INJECTIONS (STUDY DU, Dose: 0, 0.71, 2.14, 6.44 MMOL/KG IN 0.1 ML TRIOCTANOIN TOTAL DOSE ADMINISTERED AS 3 INJECTIONS/WK FOR 17 INJECTIONS (STUDY DU, Tumor Site: Type of Lesion: LUNG: ADENOMA active; positive | Species: MOUSE, Strain/Sex: STRAIN-A/MALE, Route: INTRAPERITONEAL, Dose: 0, 0.71, 2.14, 6.44 MMOL/KG IN 0.1 ML TRIOCTANOIN TOTAL DOSE ADMINISTERED AS 3 INJECTIONS/WK FOR 17 INJECTIONS (STUDY DU, Dose: 0, 0.71, 2.14, 6.44 MMOL/KG IN 0.1 ML TRIOCTANOIN TOTAL DOSE ADMINISTERED AS 3 INJECTIONS/WK FOR 17 INJECTIONS (STUDY DU, Tumor Site: Type of Lesion: LUNG: ADENOMA active; positive | Species: RAT, Strain/Sex: F344/DUCRJ FISCHER/MALE, Route: SUBCUTANEOUS, Dose: 2 MG TWICE WEEKLY FOR 10 WK (STUDY DURATION: 52 WK), Tumor Site: Type of Lesion: INTEGUMENTARY SYSTEM: FIBROUS HISTIOCYTOMAS active; positive | Species: RAT, Strain/Sex: F344/FEMALE, Route: SUBCUTANEOUS, Dose: 0, 40 UMOL (TOTAL DOSE) ADMINISTERED OVER 8 WK BEGINNING WITHIN 24 HR OF BIRTH (STUDY DURATION: 86 WK), Tumor Site: Type of Lesion: HEMATOPOIETIC SYSTEM: LEUKEMIA active; positive | Species: RAT, Strain/Sex: F344/MALE, Route: SUBCUTANEOUS, Dose: 2 MG IN DMSO 2/WK FOR 10 WK, Tumor Site: Type of Lesion: INJECTION SITE: MALIGNANT FIBROUS HISTIOCYTOMA active; positive | Species: RAT, Strain/Sex: SPRAGUE-DAWLEY/FEMALE, Route: SUBCUTANEOUS, Dose: 0, 50, 100 UMOL/KG IN DMSO 1/WK FOR 8 WK (STUDY DURATION: 62 WK), Dose: 0, 50, 100 UMOL/KG IN DMSO 1/WK FOR 8 WK (STUDY DURATION: 62 WK), Tumor Site: Type of Lesion: INJECTION SITE: MALIGNANT FIBROUS HISTIOCYTOMA, MAMMARY GLAND: FIBROADENOMA, ADENOCARCINOMA active; positive | Species: RAT, Strain/Sex: SPRAGUE-DAWLEY/MALE, Route: SUBCUTANEOUS, Dose: 0, 50, 100 UMOL/KG IN DMSO 1/WK FOR 8 WK (STUDY DURATION: 62 WK), Dose: 0, 50, 100 UMOL/KG IN DMSO 1/WK FOR 8 WK (STUDY DURATION: 62 WK), Tumor Site: Type of Lesion: INJECTION SITE: MALIGNANT FIBROUS HISTIOCYTOMA active; positive | Species: RAT, Strain/Sex: STRAIN CD/FEMALE, Route: INTRAPERITONEAL, Dose: 0, 10 UMOL IN DMSO 3/WK FOR 4 WK (TOTAL DOSE: 16 UMOL/RAT) (STUDY DURATION: 78 WK), Tumor Site: Type of Lesion: MAMMARY GLAND: ADENOCARCINOMA, FIBROADENOMA active; positive | Species: RAT, Strain/Sex: STRAIN CD/FEMALE, Route: INTRAPERITONEAL, Dose: 0, 10 UMOL IN DMSO 3/WK FOR 4 WK (TOTAL DOSE: 16 UMOL/RAT) (STUDY DURATION: 78 WK), Tumor Site: Type of Lesion: PITUITARY GLAND: CARCINOMA active; positive | Species: RAT, Strain/Sex: STRAIN-CD/FEMALE, Route: GAVAGE, Dose: 0, 50 UMOL IN 0.5 ML TRIOCTANOIN 1/WK FOR 8 WK (STUDY DURATION: 49 WK), Tumor Site: Type of Lesion: MAMMARY GLAND: FIBROADENOMA active; positive | Species: RAT, Strain/Sex: STRAIN-CD/FEMALE, Route: INTRAPERITONEAL, Dose: 0, 100 UMOL/KG BW IN DMSO 1/WK FOR 4 WK (STUDY DURATION: 90 WK), Tumor Site: Type of Lesion: MAMMARY GLAND: ADENOCARCINOMA active; positive | Species: RAT, Strain/Sex: STRAIN-CD/FEMALE, Route: INTRAPERITONEAL, Dose: 0, 100 UMOL/KG/BW IN 70 UMOL/ML DMSO 1/WK FOR 4 WK (TOTAL DOSE: 0; 77.3 UMOL) ADMINISTERED TO WEANLING RATS (STUDY DURAT, Dose: 0, 100 UMOL/KG/BW IN 70 UMOL/ML DMSO 1/WK FOR 4 WK (TOTAL DOSE: 0; 77.3 UMOL) ADMINISTERED TO WEANLING RATS (STUDY DURAT, Tumor Site: Type of Lesion: MAMMARY GLAND: ADENOCARCINOMA active; positive | Species: RAT, Strain/Sex: STRAIN-CD/FEMALE, Route: SUBCUTANEOUS, Dose: 0, 6.3 UMOL (TOTAL DOSE) ADMINISTERED OVER 8 WK BEGINNING ON DAY OF BIRTH (STUDY DURATION: 67 WK), Tumor Site: Type of Lesion: MAMMARY GLAND: TUMOR active; positive | Species: RAT, Strain/Sex: STRAIN-CD/FEMALE, Route: SUBCUTANEOUS, Dose: 0, 63 UMOL (TOTAL DOSE) ADMINISTERED OVER 8 WK BEGINNING WITHIN 24 HR OF BIRTH (STUDY DURATION: 86 WK), Tumor Site: Type of Lesion: MAMMARY GLAND: TUMOR active; positive | Species: RAT, Strain/Sex: STRAIN-CD/FEMALE, Route: SUBCUTANEOUS, Dose: 0, 100 UMOL/KG BW IN DMSO 1/WK FOR 4 WK (STUDY DURATION: 90 WK), Tumor Site: Type of Lesion: MAMMARY GLAND: FIBROADENOMA active; positive | Species: RAT, Strain/Sex: STRAIN-CD/FEMALE, Route: SUBCUTANEOUS, Dose: 0, 100 UMOL/KG/BW IN 70 UMOL/ML DMSO 1/WK FOR 4 WK (TOTAL DOSE: 0; 74.3 UMOL) ADMINISTERED TO WEANLING RATS (STUDY DURAT, Dose: 0, 100 UMOL/KG/BW IN 70 UMOL/ML DMSO 1/WK FOR 4 WK (TOTAL DOSE: 0; 74.3 UMOL) ADMINISTERED TO WEANLING RATS (STUDY DURAT, Tumor Site: Type of Lesion: MAMMARY GLAND: FIBROADENOMA active; positive | Species: RAT, Strain/Sex: STRAIN-CD/FEMALE, Route: SUBCUTANEOUS, Dose: 50, 100 UMOL/KG IN DMSO 1/WK FOR 8 WK, Tumor Site: Type of Lesion: INJECTION SITE: FIBROSARCOMA, MAMMARY GLAND: ADENOCARCINOMA active; positive | Species: RAT, Strain/Sex: STRAIN-CD/MALE, Route: SUBCUTANEOUS, Dose: 50, 100 UMOL/KG IN DMSO 1/WK FOR 8 WK, Tumor Site: Type of Lesion: INJECTION SITE: FIBROSARCOMA active; positive
